The record followed here is patent US20240383923A1, “HETEROARYL DERIVATIVE AND USE THEREOF” (VORONOI INC., priority 2022, published 2024).

The subject of one test is N-87 cancer cells. As to the kind of experiment: Inhibition of N-87 cell proliferation (CellTiter-Glo). The class given is cell-based. The conditions noted are these: N-87 cells, 72 hours. On the procedure: N-87 cancer cells were cultured by using RPMI-1640 medium with 10% FBS. The N-87 cancer cells were seeded to a white clear bottom 96 well plate (Corning) at 5,000 cells per well 24 hours before the […] cancer cells were treated with Example Compounds. Example Compounds were diluted in dimethylsulfoxide (5-fold diluted, total 11 concentrations) and 0.5 μL each was injected so that the final concentration was […]. For the measurement of living cells, the cells were stored at room temperature for 10 minutes using the CellTiter-Glo cell viability reagent (Promega) after 72 hours after the treatment of Example Compounds, and then the luminescence intensity was measured using the reader (SynergyNeo, Biotek).
The result value was calculated as a cell growth rate (%) compared to a control group. Graphs were plotted and GI50 values were calculated using the GraphPad Prism version 8.0 program, and the results are shown in Table 18 below.
For orientation: In ATP-based viability assays light output follows the ATP content of the culture.

In the next test the test system is BT-474 cancer cells. As to the kind of experiment: Inhibition of BT-474 cell proliferation (CellTiter-Glo). The class given is cell-based. The conditions noted are these: Homo sapiens, BT-474 cells, 120 hours. The method in brief:
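BT-474 cells in RPMI-1640 with 20% FBS, seeded 48 h before dosing with 11 three-fold dilutions (final 0.2 nM to 10 μM). Viability read by CellTiter-Glo luminescence 120 h after treatment, triplicate tests. GI50 derived from growth rate (%) versus control.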

SMILES strings stand for the structures.

On to `C=CC(=O)N1CCC(Nc2cc3c(Nc4cc(C)c(Oc5ccn6ncnc6c5)cc4OC)ncnc3cc2OC)CC1` [Example 1, 1-(4-((4-((4-([1,2,4]triazolo[1,5-a]pyridin-7-yloxy)-2-methoxy-5-methylphenyl)amino)-7-methoxyquinazolin-6-yl)amino)piperidin-1-yl)prop-2-en-1-one], for which the GI50 with N-87 cancer cells and in the test on BT-474 cancer cells was no more than 0.05 µM each time.
As to `C=CC(=O)N1CCC(Nc2cc3c(Nc4cc(Cl)c(Oc5ccccn5)cc4OC)ncnc3cc2OC)CC1` [Example 3, 1-(4-((4-((5-chloro-2-methoxy-4-(pyridin-2-yloxy)phenyl)amino)-7-methoxyquinazolin-6-yl)amino)piperidin-1-yl)prop-2-en-1-one], the GI50 in the test with N-87 cancer cells and in the test with BT-474 cancer cells was no more than 0.05 µM each time.
As to `C=CC(=O)N1CCC(Oc2cc3c(Nc4cc(Cl)c(Oc5ccn6ncnc6c5)cc4OC)ncnc3cc2OC)CC1` [Example 5, 1-(4-((4-((4-([1,2,4]triazolo[1,5-a]pyridin-7-yloxy)-5-chloro-2-methoxyphenyl)amino)-7-methoxyquinazolin-6-yl)oxy)piperidin-1-yl)prop-2-en-1-one], the GI50 in the test with N-87 cancer cells and in the test on BT-474 cancer cells was no more than 0.05 µM throughout.
For the compound `C=CC(=O)N1CCC(Oc2cc3c(Nc4cc(Cl)c(Oc5cccc(F)c5)cc4OC)ncnc3cc2OC)C(F)C1` (centres unmarked) [Example 6, 1-(4-((4-((5-chloro-4-(3-fluorophenoxy)-2-methoxyphenyl)amino)-7-methoxyquinazolin-6-yl)oxy)-3-fluoropiperidin-1-yl)prop-2-en-1-one], the GI50 with N-87 cancer cells and with BT-474 cancer cells was no more than 0.05 µM throughout.
In the case of `C=CC(=O)N1CCC(Oc2cc3c(Nc4ccc(Oc5cccc(F)c5)cc4OC)ncnc3cc2OC)CC1` [Example 7, 1-(4-((4-((4-(3-fluorophenoxy)-2-methoxyphenyl)amino)-7-methoxyquinazolin-6-yl)oxy)piperidin-1-yl)prop-2-en-1-one], the GI50 in the test with N-87 cancer cells and in the test with BT-474 cancer cells was no more than 0.05 µM throughout.
As to `C=CC(=O)N1CCC(Oc2cc3c(Nc4ccc(Oc5ccn(-c6cnc(C)c(F)c6)n5)cc4OC)ncnc3cc2OC)CC1` [Example 9, 1-(4-((4-((4-((1-(5-fluoro-6-methylpyridin-3-yl)-1H-pyrazol-3-yl)oxy)-2-methoxyphenyl)amino)-7-methoxyquinazolin-6-yl)oxy)piperidin-1-yl)prop-2-en-1-one], the results for the GI50 in the test on N-87 cancer cells and in the test on BT-474 cancer cells were no more than 0.05 µM and 0.05 to 0.1 µM, respectively.
Take `C=CC(=O)N1CCC(Oc2cc(OC)cc3ncnc(Nc4cc(C)c(Oc5ccn6ncnc6c5)cc4OC)c23)C(F)(F)C1` (centres unmarked) [Example 15, 1-(4-((4-((4-([1,2,4]triazolo[1,5-a]pyridin-7-yloxy)-2-methoxy-5-methylphenyl)amino)-7-methoxyquinazolin-5-yl)oxy)-3,3-difluoropiperidin-1-yl)prop-2-en-1-one]: the GI50 with N-87 cancer cells and with BT-474 cancer cells was no more than 0.05 µM each time.
With `C=CC(=O)N1CCC(F)(F)C(Oc2cc(OC)cc3ncnc(Nc4cc(C)c(Oc5ccn6ncnc6c5)cc4OC)c23)C1` (centres unmarked) [Example 16, 1-(3-((4-((4-([1,2,4]triazolo[1,5-a]pyridin-7-yloxy)-2-methoxy-5-methylphenyl)amino)-7-methoxyquinazolin-5-yl)oxy)-4,4-difluoropiperidin-1-yl)prop-2-en-1-one], the GI50 in the test with N-87 cancer cells and in the test with BT-474 cancer cells was no more than 0.05 µM each time.
As to `C=CC(=O)Nc1cc2c(Nc3cc(Cl)c(Oc4ccccn4)cc3OC)ncnc2cc1OC` [Example 24, N-(4-((5-chloro-2-methoxy-4-(pyridin-2-yloxy)phenyl)amino)-7-methoxyquinazolin-6-yl)acrylamide], the GI50 with N-87 cancer cells and in the test with BT-474 cancer cells was no more than 0.05 µM in each case.
Regarding `COc1cc2ncnc(Nc3cc(Cl)c(Oc4cccc(F)c4)cc3OC)c2cc1NC(=O)/C=C/[C@H]1CCCN1` [Example 31, (R,E)-N-(4-((5-chloro-4-(3-fluorophenoxy)-2-methoxyphenyl)amino)-7-methoxyquinazolin-6-yl)-3-(pyrrolidin-2-yl)acrylamide], the GI50 in the test on N-87 cancer cells and in the test on BT-474 cancer cells was no more than 0.05 µM throughout.
With `COc1cc2ncnc(Nc3cc(Cl)c(Oc4ccn5ncnc5c4)cc3OC)c2cc1NC(=O)/C=C/[C@H]1CCCN1C` [Example 32, (R,E)-N-(4-((4-([1,2,4]triazolo[1,5-a]pyridin-7-yloxy)-5-chloro-2-methoxyphenyl)amino)-7-methoxyquinazolin-6-yl)-3-(1-methylpyrrolidin-2-yl)acrylamide], the GI50 in the test with N-87 cancer cells and in the test with BT-474 cancer cells was no more than 0.05 µM in each case.
Turning to `COc1cc2ncnc(Nc3cc(C)c(Oc4ccn5ncnc5c4)cc3OC)c2cc1NC(=O)/C(F)=C\[C@H]1CCCN1C` [Example 41, (R,E)-N-(4-((4-([1,2,4]triazolo[1,5-a]pyridin-7-yloxy)-2-methoxy-5-methylphenyl)amino)-7-methoxyquinazolin-6-yl)-2-fluoro-3-(1-methylpyrrolidin-2-yl)acrylamide], the GI50 in the test on N-87 cancer cells and in the test on BT-474 cancer cells was no more than 0.05 µM throughout.
With `COc1cc2ncnc(Nc3ccc(Oc4ccn5ncnc5c4)cc3OC)c2cc1NC(=O)/C(F)=C\[C@H]1CCCN1C` [Example 46, (R,E)-N-(4-((4-([1,2,4]triazolo[1,5-a]pyridin-7-yloxy)-2-methoxyphenyl)amino)-7-methoxyquinazolin-6-yl)-2-fluoro-3-(1-methylpyrrolidin-2-yl)acrylamide], the GI50 in the test on N-87 cancer cells and in the test on BT-474 cancer cells was no more than 0.05 µM in each case.
As for `COc1cc2ncnc(Nc3cc(Cl)c(Oc4ccn5ncnc5c4)cc3OC)c2cc1NC(=O)/C(F)=C\[C@H]1CCCN1C` [Example 51, (R,E)-N-(4-((4-([1,2,4]triazolo[1,5-a]pyridin-7-yloxy)-5-chloro-2-methoxyphenyl)amino)-7-methoxyquinazolin-6-yl)-2-fluoro-3-(1-methylpyrrolidin-2-yl)acrylamide], the 50% growth inhibitory concentration (GI50) with N-87 cancer cells and in the test on BT-474 cancer cells was no more than 0.05 µM throughout.
As for `CCN1CCC[C@@H]1/C=C(/F)C(=O)Nc1cc2c(Nc3cc(C)c(Oc4ccn5ncnc5c4)cc3OC)ncnc2cc1OC` [Example 52, (R,E)-N-(4-((4-([1,2,4]triazolo[1,5-a]pyridin-7-yloxy)-2-methoxy-5-methylphenyl)amino)-7-methoxyquinazolin-6-yl)-3-(1-ethylpyrrolidin-2-yl)-2-fluoroacrylamide], the GI50 in the test with N-87 cancer cells and in the test on BT-474 cancer cells was no more than 0.05 µM each time.
Take `COc1cc2ncnc(Nc3cc(C)c(Oc4ccc5ncn(C)c5c4)cc3OC)c2cc1NC(=O)/C(F)=C\[C@H]1CCCN1C` [Example 55, (R,E)-2-fluoro-N-(7-methoxy-4-((2-methoxy-5-methyl-4-((1-methyl-1H-benzo[d]imidazol-6-yl)oxy)phenyl)amino)quinazolin-6-yl)-3-(1-methylpyrrolidin-2-yl)acrylamide]: the GI50 in the test with N-87 cancer cells and with BT-474 cancer cells was no more than 0.05 µM each time.
On to `COc1cc2ncnc(Nc3cc(C)c(Oc4ccccc4)cc3OC)c2cc1NC(=O)/C(F)=C\[C@H]1CCCN1C` [Example 74, (R,E)-2-fluoro-N-(7-methoxy-4-((2-methoxy-5-methyl-4-phenoxyphenyl)amino)quinazolin-6-yl)-3-(1-methylpyrrolidin-2-yl)acrylamide], for which the 50% growth inhibitory concentration (GI50) in the test on N-87 cancer cells and with BT-474 cancer cells was no more than 0.05 µM in each case.
As for `COc1cc2ncnc(Nc3cc(C)c(Oc4ccn5ccnc5c4)cc3OC)c2cc1NC(=O)/C(F)=C/[C@H]1CCCN1C` [Example 76, (R,Z)-2-fluoro-N-(4-((4-(imidazo[1,2-a]pyridin-7-yloxy)-2-methoxy-5-methylphenyl)amino)-7-methoxyquinazolin-6-yl)-3-(1-methylpyrrolidin-2-yl)acrylamide], the GI50 in the test on N-87 cancer cells and in the test on BT-474 cancer cells was no more than 0.05 µM in each case.
Regarding `COc1cc(Oc2ccn3ncnc3c2)c(C)cc1Nc1ncnc2ccc(NC(=O)/C(F)=C\[C@H]3CCCN3C)cc12` [Example 91, (R,E)-N-(4-((4-([1,2,4]triazolo[1,5-a]pyridin-7-yloxy)-2-methoxy-5-methylphenyl)amino)quinazolin-6-yl)-2-fluoro-3-(1-methylpyrrolidin-2-yl)acrylamide], the GI50 in the test with N-87 cancer cells and in the test on BT-474 cancer cells was no more than 0.05 µM each time.
Regarding `[2H]C([2H])([2H])N1CCC[C@@H]1/C=C(\F)C(=O)Nc1cc2c(Nc3cc(F)c(Oc4ccn5ncnc5c4)cc3OC)ncnc2cc1OC` [Example 155, (R,Z)—N-(4-((4-([1,2,4]triazolo[1,5-a]pyridin-7-yloxy)-5-fluoro-2-methoxyphenyl)amino)-7-methoxyquinazolin-6-yl)-2-fluoro-3-(1-(methyl-d3)pyrrolidin-2-yl)acrylamide], in the test on BT-474 cancer cells, the GI50 (as a rule, the concentration at which growth is held to half of that of the control) is no more than 0.05 µM.
The same measure, in the same setting: next, `[2H]C([2H])([2H])N1CCC[C@@H]1/C=C(\F)C(=O)Nc1cc2c(Nc3cc(Cl)c(Oc4ccn5ncnc5c4)cc3OC)ncnc2cc1OC` [Example 156, (R,Z)—N-(4-((4-([1,2,4]triazolo[1,5-a]pyridin-7-yloxy)-5-chloro-2-methoxyphenyl)amino)-7-methoxyquinazolin-6-yl)-2-fluoro-3-(1-(methyl-d3)pyrrolidin-2-yl)acrylamide]: no more than 0.05 µM; `[2H]C([2H])([2H])N1CCC[C@@H]1/C=C(/F)C(=O)Nc1cc2c(Nc3cc(F)c(Oc4ccn5ncnc5c4)cc3OC)ncnc2cc1OC` [Example 157, (R,E)-N-(4-((4-([1,2,4]triazolo[1,5-a]pyridin-7-yloxy)-5-fluoro-2-methoxyphenyl)amino)-7-methoxyquinazolin-6-yl)-2-fluoro-3-(1-(methyl-d3)pyrrolidin-2-yl)acrylamide]: no more than 0.05 µM.
